{"source": "patent US9427474B2", "about": "“Conjugates of a polymer, a bisphosphonate and an anti-angiogenesis agent and uses thereof in the treatment and monitoring of bone related diseases” (Ramot at Tel-Aviv University Ltd., priority 2008, dated 2016)", "key": {"HUVEC": {"tested_on": "HUVEC", "experiment": "HUVEC cell proliferation assay", "type": "cell-based, human", "conditions": "for IC50: 48 hours incubation, Paclitaxel-equivalent, read-out: IC50, proliferation of HUVECs", "protocol": "Human Umbilical vain endothelial cells (HUVEC) were plated onto 24-well plate (1×10^4 cells/well) in growth factors reduced media, (EBM-2, Cambrex, USA) supplemented with 5% Fetal Bovine Serum (FBS). Following 24 hours of incubation (37° C.; 5% CO2) medium was replaced with EGM-2 (Cambrex, USA). PC3 cells were plated onto 96 well plate (2×10^3 cells/well) in DMEM supplemented with 5% FBS and incubated for 24 hours (37° C.; 5% CO2). Following 24 hours of incubation medium was replaced with DMEM containing 10% FBS. […] Control cells were grown with or without growth factors. After incubation HUVEC and PC3 were counted by Coulter Counter or by XTT respectively."}, "[1]": {"tested_on": "human prostate cell line PC3", "experiment": "PC3 cell proliferation assay (XTT)", "type": "cell-based", "protocol": "Human Umbilical vain endothelial cells (HUVEC) were plated onto 24-well plate (1×10^4 cells/well) in growth factors reduced media, (EBM-2, Cambrex, USA) supplemented with 5% Fetal Bovine Serum (FBS). Following 24 hours of incubation (37° C.; 5% CO2) medium was replaced with EGM-2 (Cambrex, USA). PC3 cells were plated onto 96 well plate (2×10^3 cells/well) in DMEM supplemented with 5% FBS and incubated for 24 hours (37° C.; 5% CO2). Following 24 hours of incubation medium was replaced with DMEM containing 10% FBS. Cells were challenged with a combination of paclitaxel and ALN, a combination of Paclitaxel-FK and ALN, with each drug alone, and with […] (SEQ ID NO: 12), at serial concentrations for 72 hours. Control cells were grown with or without growth factors. After incubation HUVEC and PC3 were counted by Coulter Counter or by XTT respectively."}, "[2]": {"tested_on": "DA3 murine mammary cancer cells", "experiment": "Antitumor activity in vivo, mCherry-labeled DA3 tumors in the tibia", "design": "species or system Balb/c female mice", "conditions": "9 days of treatment", "protocol": "9 Balb/c female mice (n=3 per group) were injected intra tibia with 5×10^5 mCherry-labeled DA3 murine mammary cancer cells. […] (SEQ ID NO: 12) or with vehicle (1:1:8 cremophor EL:ethanol:saline). Therapy was initiated 10 days after tumor cells injection. Tumor progression was monitored by CRI™ Maestro non-invasive intravital imaging system. At termination, tibias were weighed and analyzed. Data is expressed as mean±standard error of the mean (s.e.m.).\nBalb/c female mice bearing mCherry-labeled DA3 tumors in the tibia were treated with free and conjugated ALN and PTX (1:1.6, 1.25 mg/kg ALN and 2 mg/kg PTX, every day). Tumor growth rates were measured and monitored by mCherry fluorescence signal using CRI™ Maestro non-invasive intravital imaging system."}}, "note": "HPMA copolymer = not defined here"}
{"compound": "NCCCC(O)(P(=O)(O)O)P(=O)(O)O", "note": "[ALN, (4-amino-1-hydroxybutylidene)bisphosphonic acid]", "values": [{"measurement": "concentration at which proliferation of HUVEC was inhibited (only the highest dose tested)", "setting": "HUVEC; ALN alone", "result": 6.25, "unit": "µM"}, {"measurement": "additional effect on proliferation of HUVEC when combined with Paclitaxel or Paclitaxel-FK", "setting": "HUVEC; tested concentrations 10 μM-0.001 nM", "result": "no additional effect"}, {"measurement": "effect on the proliferation of PC3 cells", "setting": "[1]; concentrations tested 0.01 nM-10 μM, alone or combined with PTX or PTX-FK", "result": "no effect"}]}
{"compound": "CC(=O)O[C@H]1C(=O)[C@@]2(C)[C@H]([C@H](OC(=O)c3ccccc3)[C@]3(O)C[C@H](OC(=O)[C@H](O)[C@@H](NC(=O)c4ccccc4)c4ccccc4)C(C)=C1C3(C)C)[C@]1(OC(C)=O)CO[C@@H]1C[C@@H]2O", "note": "[PTX, paclitaxel]", "values": [{"measurement": "IC50", "setting": "[1]; Homo sapiens, PC-3, 72 hours, PTX alone, read-out: IC50, proliferation of PC3 cells", "result": 1000, "unit": "nM"}, {"measurement": "antitumor effect (in words)", "setting": "[2]", "result": "no therapeutic effect"}, {"measurement": "antitumor effect (in words)", "setting": "[2]; listed as Free PTX", "result": "no antitumor effect"}, {"measurement": "antitumor effect (in words)", "setting": "[2]; listed as free PTX", "result": "unaffected"}]}
{"compound": "HPMA copolymer-GGFK-PTX conjugate: cathepsin B-enzymatically cleavable HPMA copolymer conjugate of paclitaxel ({HPMA copolymer}-GGFK-paclitaxel; reading uncertain; also: conjugated to HPMA copolymer, conjugated to paclitaxel (PTX))", "values": [{"measurement": "IC50", "setting": "HUVEC", "result": "~100", "unit": "nM"}]}
{"compound": "HPMA copolymer-GGGG-PTX conjugate ({HPMA copolymer}-GGGG-paclitaxel; reading uncertain; also: conjugated to HPMA copolymer, conjugated to paclitaxel (PTX))", "values": [{"measurement": "concentration inhibiting HUVEC proliferation relative to cathepsin B cleavable HPMA-GGFK-PTX conjugate", "setting": "HUVEC; 48 hours", "result": 2, "unit": "logs"}, {"measurement": "IC50", "setting": "HUVEC", "result": "~10000", "unit": "nM"}]}
